How the values were obtained:
[1] = system: SK-N-SH human neuroblastoma cells; assay: Detection of NO produced by cNOS in SK-N-SH cells (fluorescence imaging); assay type: cell-based; settings: estradiol-stimulated neuroblastoma cells
Procedure: FIG. 7 illustrates Cu(FL5) detection of NO produced by cNOS. (a) NO detection in SK-N-SH cells by Cu(FL5). Left to right: 25 min incubation of Cu(FL5) (1 μM) and 5, 10, 15, 25 min after co-treatment of Cu(FL5) (1 μM) and 17β-estradiol (100 nM). Images were taken with a Nikon Eclipse TS100 microscope after removing the DMEM media and washing the cells with PBS. Top: fluorescence images; bottom: phase contrast images. (b) Fluorescence intensity (F(t)/FCu(FL5)) from a was plotted against incubation time. (c) NO production with or without of L-NNA. Right: NO detection in cells after 10 min co-incubation of Cu(FL5) (1 μM) and 17β-estradiol (100 nM). Left: NO detection in cells pre-treated with L-NNA for 1 h before addition of Cu(FL5) and 17β-estradiol.
We investigated the ability of Cu(FL5) to detect NO produced in SK-N-SH human neuroblastoma cells under physiological conditions, since constitutive NO synthase (“cNOS”) in this cell line can be activated by estrogen to produce NO. Estrogen administration leads to an increase in the cytosolic Ca(II) concentration that alters the structure of calmodulin, which in turn activates cNOS. The NO-dependent fluorescence response, monitored after simultaneous administration of 17β-estradiol (100 nM) and Cu(FL5) (1 μM) to the cells, was completed within 5 min with a 4.0±0.6-fold increase in fluorescence (FIGS. 5a and b). […] As another control, HeLa cells were co-treated with 17β-estradiol (100 nM) and Cu(FL5) (1 μM).
Raw 264.7, SK-N-SH, and HeLa cells were purchased from the American Type Culture Collection (ATCC). All three cell lines were maintained in Dulbecco's modified Eagles' media (DMEM) (GibcoBRL) containing 10% (v/v) heat-inactivated fetal bovine serum (FBS) (HyClone), 1 mM sodium pyruvate (Sigma), 100 units/ml penicillin, 100 μg/ml streptomycin (Invitrogen), and 0.1 mM nonessential amino acid solution for minimal essential medium (Sigma). All cells were grown at 37° C. in a humidified atmosphere of 10% CO2. A nitrite assay was performed with Griess reagents (Promega) on Raw 264.7 cells grown in DMEM free of phenol red. Calcium sensor fluo-4 AM was purchased from Invitrogen. MTT [3-(4,5-dimethylthiazol-2-yl)-2,5-diphenyltetrazolium bromide] (Sigma-Aldrich) assay was described in Supplementary information. The expression of iNOS in Raw 264.7 cells was analyzed by Western blot on the extracts of cells stimulated by LPS and INF-γ. The protein was silenced by short hairpin RNA-induced RNAi and the resulting cell lines were used in fluorescence imaging by Cu(FL5).

[2] = Stability of nitrosated ligand at pH 7.0; assay type: physicochemical
Description: High resolution MS of FL5-^14NO and FL-^15NO were also obtained, showing m/z=600.0729 for FL5-^14NO and 601.0736 for FL5-^15NO, corresponding to [FL5+NO−H+Cl]^− (calcd. m/z 600.0729 and 601.0700).

Quantum yield = assay type: physicochemical
Description: Quantum yield may be obtained by comparison of the integrated area of the corrected emission spectrum of the sample with that of a reference solution. A preferred reference solution is a solution of fluorescein in 0.1 N NaOH, quantum efficiency 0.95. The concentration of the reference is adjusted to match the absorbance of the test sample. The quantum yields may be calculated using the following equation.
Upon addition of excess NO, a 499 nm peak in the UV-vis spectrum of Cu(FL5) in pH 7.0 buffered solution red-shifted back to the λmax characteristic of FL5 or the synthetic FL5−NO compound (504 nm), which differs from the band formed in the reaction of FL5 with 1 equivalent of Cu(I) added as [Cu(CH3CN)4](BF4) (506 nm). […] In addition, the spectrum of the NO reaction solution closely resembled that of the monoanionic fluorescein formed by lowering the pH from 7.0 to 5.0. […] These values are in the range previously reported for N-nitrosamines. The presence of two separate chemical shifts might arise from different isomers in solution, the Δδ of 2.29 being similar to that of previously reported of N-nitrosamines. […] Lastly, FL5−NO is brighter than FL5 or Cu(FL5), the respective quantum yields being ΦFL-NO=0.58±0.02 and ΦFL=0.077±0.002.

[3] = Fluorescence response to NO in buffered aqueous solution
Procedure: FIG. 5 depicts the fluorescence response of Cu(FL5) to NO. Fluorescence emission spectra (λex=503 nm) of a deoxygenated 1 μM solution of Cu(FL5) in buffered solution (50 mM PIPES, pH 7.0, 100 mM KCl) before (dashed line), immediately, 1, 2 and 5 min after (solid lines) admission of 1300 equiv of NO (g) at 37° C.
The fluorescence of a 1 μM FL5 solution was diminished by 18±3% upon introduction of an equimolar quantity of CuCl2 at 37° C. Addition of excess NO to a buffered aqueous Cu(FL5) solution led to an immediate 11.2±1.5-fold increase in fluorescence (FIG. 5). […] The lower detection limit for NO is 5 nM.
A commercially available NO probe, DAF-2 (o-diaminofluorescein), was used for comparison with Cu(FL5). The fluorescence of DAF-2 is unchanged in the presence of NO and the absence of O2 over a period of 1 h.
As depicted in FIG. 4, NO detection by Cu(FL5) occurs, formally, by nitric oxide-induced reduction of Cu(II) to Cu(I), forming NO^+, which nitrosates the ligand with concomitant dissociation from copper and fluorescence turn-on. The mechanism of turn-on emission of Cu(FL5) by NO was investigated by EPR, UV-vis, NMR and fluorescence spectroscopy and by liquid chromatography-mass spectrometry (LC-MS, low resolution MS).

CC(=O)Oc1ccc2c(c1)Oc1cc(OC(C)=O)ccc1C21OC(=O)c2cc(N)c(N)cc21 [DAF-2 DA, o-diaminofluorescein diacetate, reference compound]
fluorescence increase of treated cells 30 min after activation of cNOS [1]: only a slight fluorescence increase

Cc1ccc2cccc(N(Cc3c(O)ccc4c(-c5ccccc5C(=O)O)c5cc(Cl)c(=O)cc-5oc34)N=O)c2n1 [FL5−NO, 2-{2-chloro-6-hydroxy-5-[((2-methylquinolin-8-yl)(nitroso)amino)-methyl]-3-oxo-3H-xanthen-9-yl}-benzoic acid]
stability [2]: stable for several days
quantum yield Φ (Quantum yield): 0.58±0.02

o-diaminofluorescein [DAF-2, reference compound]
fluorescence in the presence of NO when O2 is present [3]: turn-on fluorescence
fluorescence in the presence of NO and the absence of O2 ([3]; over a period of 1 h): unchanged

From US7494821B2, “Fluorescein based sensors for tracking nitric oxide in live cells” (Massachusetts Institute of Technology, priority 2005, dated 2009)
